# According to PubChem BioAssay AID1963858 (Molecular Pharmacology Branch, DTP, NCI, 2024):
# System: HOP-62 multicell spheroids with HUVEC/MSC, viability
# Experiment: Anticancer human tumor HOP-62 cell line growth inhibition [KRAS2];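 note: viability read after a week of compound exposure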;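 for viability, T/C: 100% = DMSO vehicle-treated spheroids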
# Conditions: for viability, T/C: stronger effect = lower value
# In short: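 KRAS-mutant tumor cells were grown as spheroids with HUVEC endothelial cells and human MSCs as stroma. Targeted agents were tested alone and with KRAS pathway inhibitors. Doses started at or near clinical Cmax, or 10 microM, descending half-log.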
# [1] = curve of first compound, second compound 0.1 µM
# [2] = curve of first compound, second compound 0.316 µM
# [3] = curve of first compound, second compound 1 µM
# [4] = curve of first compound, second compound 3.16 µM
# [5] = curve of first compound, second compound 10 µM
# [6] = second compound 0.1 µM, first compound 0.0316 µM
# [7] = second compound 0.1 µM, first compound 0.1 µM
# [8] = second compound 0.1 µM, first compound 0.316 µM
# [9] = second compound 0.1 µM, first compound 1 µM
# [10] = second compound 0.1 µM, first compound 3.16 µM
# [11] = second compound 0.316 µM, first compound 0.0316 µM
# [12] = second compound 0.316 µM, first compound 0.1 µM
# [13] = second compound 0.316 µM, first compound 0.316 µM
# [14] = second compound 0.316 µM, first compound 1 µM
# [15] = second compound 0.316 µM, first compound 3.16 µM
# [16] = second compound 1 µM, first compound 0.0316 µM
# [17] = second compound 1 µM, first compound 0.1 µM
# [18] = second compound 1 µM, first compound 0.316 µM
# [19] = second compound 1 µM, first compound 1 µM
# [20] = second compound 1 µM, first compound 3.16 µM
# [21] = second compound 3.16 µM, first compound 0.0316 µM
# [22] = second compound 3.16 µM, first compound 0.1 µM
# [23] = second compound 3.16 µM, first compound 0.316 µM
# [24] = second compound 3.16 µM, first compound 1 µM
# [25] = second compound 3.16 µM, first compound 3.16 µM
# [26] = second compound 10 µM, first compound 0.0316 µM
# [27] = second compound 10 µM, first compound 0.1 µM
# [28] = second compound 10 µM, first compound 0.316 µM
# [29] = second compound 10 µM, first compound 1 µM
# [30] = second compound 10 µM, first compound 3.16 µM
smiles,measurement,setting,value
CC(=O)OC12COC1CC(O)C1(C)C(=O)C(O)C3=C(C)C(OC(=O)C(O)C(NC(=O)OC(C)(C)C)c4ccccc4)CC(O)(C(OC(=O)c4ccccc4)C21)C3(C)C (centres undefined) + CNCc1ccccc1-c1csc(C(C)Nc2nc(C)nc3cc(OC)c(OC)cc23)c1,IC50,[1],< 10 nM
same,IC50,[2],< 10 nM
same,IC50,[3],< 10 nM
same,IC50,[4],< 10 nM
same,IC50,[5],< 10 nM
same,"viability, T/C","second compound 0.1 µM, first compound 0.01 µM",36.4%
same,"viability, T/C",[6],35.2%
same,"viability, T/C",[7],38.1%
same,"viability, T/C",[8],35%
same,"viability, T/C",[9],34.9%
same,"viability, T/C",[10],45.7%
same,"viability, T/C","second compound 0.316 µM, first compound 0.01 µM",34.3%
same,"viability, T/C",[11],33%
same,"viability, T/C",[12],38.1%
same,"viability, T/C",[13],31.7%
same,"viability, T/C",[14],29.2%
same,"viability, T/C",[15],37%
same,"viability, T/C","second compound 1 µM, first compound 0.01 µM",34%
same,"viability, T/C",[16],28.4%
same,"viability, T/C",[17],28%
same,"viability, T/C",[18],33.6%
same,"viability, T/C",[19],39.8%
same,"viability, T/C",[20],42.4%
same,"viability, T/C","second compound 3.16 µM, first compound 0.01 µM",26.4%
same,"viability, T/C",[21],0.11%
same,"viability, T/C",[22],0.07%
same,"viability, T/C",[23],0.09%
same,"viability, T/C",[24],0.11%
same,"viability, T/C",[25],34.9%
same,"viability, T/C","second compound 10 µM, first compound 0.01 µM",3.3%
same,"viability, T/C",[26],1.3%
same,"viability, T/C",[27],0.1%
same,"viability, T/C",[28],0.14%
same,"viability, T/C",[29],30.4%
same,"viability, T/C",[30],2.73%
COC(=O)c1ccc2c(C(=Nc3ccc(N(C)C(=O)CN4CCN(C)CC4)cc3)c3ccccc3)c(O)[nH]c2c1,"viability, T/C",compound 0.0316 µM,89.8% [middle of 5 runs]
same,"viability, T/C",compound 0.1 µM,77.7% [middle of 5 runs]
same,"viability, T/C",compound 0.316 µM,65.8% [middle of 5 runs]
same,"viability, T/C",compound 1 µM,48.6% [middle of 5 runs]
same,"viability, T/C",compound 3.16 µM,40.7% [middle of 5 runs]
same,"viability, T/C",compound 10 µM,15.8% [middle of 5 runs]
same,IC50,curve of compound,1.09 µM [middle of 5 runs]
COC(=O)c1ccc2c(C(=Nc3ccc(N(C)C(=O)CN4CCN(C)CC4)cc3)c3ccccc3)c(O)[nH]c2c1 + COc1cc2nc(C)nc(NC(C)c3cc(N)cc(C(F)(F)F)c3)c2cc1OC1CCOC1,IC50,[1],797 nM
same,IC50,[2],325 nM
same,IC50,[3],52.2 nM
same,IC50,[4],< 31.6 nM
same,IC50,[5],< 31.6 nM
same,"viability, T/C",[6],98.5%
same,"viability, T/C",[7],85.7%
same,"viability, T/C",[8],53%
same,"viability, T/C",[9],50.9%
same,"viability, T/C",[10],34.9%
same,"viability, T/C","second compound 0.1 µM, first compound 10 µM",10.4%
same,"viability, T/C",[11],67%
same,"viability, T/C",[12],57.1%
same,"viability, T/C",[13],51.5%
same,"viability, T/C",[14],25.5%
same,"viability, T/C",[15],26.3%
same,"viability, T/C","second compound 0.316 µM, first compound 10 µM",20.8%
same,"viability, T/C",[16],54%
same,"viability, T/C",[17],46.1%
same,"viability, T/C",[18],33.4%
same,"viability, T/C",[19],28.7%
same,"viability, T/C",[20],26.7%
same,"viability, T/C","second compound 1 µM, first compound 10 µM",16.2%
same,"viability, T/C",[21],45.2%
same,"viability, T/C",[22],32.6%
same,"viability, T/C",[23],36.5%
same,"viability, T/C",[24],24.5%
same,"viability, T/C",[25],18.9%
same,"viability, T/C","second compound 3.16 µM, first compound 10 µM",0.46%
same,"viability, T/C",[26],39.9%
same,"viability, T/C",[27],32.6%
same,"viability, T/C",[28],30.7%
same,"viability, T/C",[29],24.5%
same,"viability, T/C",[30],0.7%
same,"viability, T/C","second compound 10 µM, first compound 10 µM",0.2%
CC1(C)CCC(CN2CCN(c3ccc(C(=O)NS(=O)(=O)c4ccc(NCC5CCOCC5)c([N+](=O)[O-])c4)c(Oc4cnc5[nH]ccc5c4)c3)CC2)=C(c2ccc(Cl)cc2)C1,"viability, T/C",compound 0.0316 µM,97.8% [middle of 5 runs]
same,"viability, T/C",compound 0.1 µM,98.4% [middle of 5 runs]
same,"viability, T/C",compound 0.316 µM,93.6% [middle of 5 runs]
same,"viability, T/C",compound 1 µM,89.2% [middle of 5 runs]
same,"viability, T/C",compound 3.16 µM,73.1% [middle of 5 runs]
same,"viability, T/C",compound 10 µM,26.2% [middle of 5 runs]
same,IC50,curve of compound,5.7 µM [middle of 5 runs]
